Results from publication PMC8232704, “Hydrophobic Tagging-Mediated Degradation of Transcription Coactivator SRC-1” (International Journal of Molecular Sciences, 2021).
Bridge positions count the residues as written; N and C are the ends. Square brackets hold non-standard residues; d marks the D form. Peptide text beside a SMILES is read from it. N(1-adamantyl)Gly = O=C(O)CNC12CC3CC(CC(C3)C1)C2; Cha = N[C@@H](CC1CCCCC1)C(=O)O; S5 = C=CCCC[C@](C)(N)C(=O)O; PEG3 = NCCOCCOCCOCCC(=O)O

Experiments:
[1] = biological target: T1, SRC-1 in MDA-MB-231 cells (Homo sapiens, UniProt Q15788); assay: Immunoblot analysis of cellular SRC-1 levels (SRC-1 degradation); format: cell-based; conditions: for SRC-1 (%): normalized to GAPDH and DMSO controls
T1 construct: endogenous in cells; host or cells: MDA-MB-231
Description: MDA-MB-231 and HEK293T cells were cultured in a medium containing Dulbecco’s modified eagle medium (DMEM) supplemented with 1% penicillin–streptomycin (PS) and 10% FBS with 5% CO2 at 37 °C.
MDA-MB-231 cells were seeded into 6-well pates (Corning, 3506) at a density of 6 × 10^5 cell per well. After incubation at 37 °C for 24 h, cells were treated with synthesized compounds in Opti-MEM medium for 12, 18, or 24 h. Cells were washed twice with cold Dulbecco’s phosphate-buffered saline (DPBS) prior to cell lysis using a cell lysis buffer (1% Triton X-100, 150 mM NaCl, 50 mM Tris-HCl pH 7.6, 0.1% SDS, 0.5% sodium deoxycholate, and 1 × protease inhibitor cocktail) on ice. Cell lysates were centrifuged at 13,000 rpm at 4 °C for 15 min. The supernatant was collected, and protein concentration was determined using Pierce^TM 660nm protein assay. A 6 × SDS loading buffer was added to the cell lysate and incubated at 95 °C for 5 min. The same amount of protein was subjected to SDS-PAGE and transferred to PVDF membranes. After blocking membranes with 5% skim milk in TBST (Tris-buffered saline with 0.05% Tween 20), membranes were incubated with a primary antibody at 4 °C overnight. Membranes were then incubated with HRP-linked secondary antibody at rt for 1 h and developed with Pico ECL solution. In MG-132 and 17-AAG treatment experiments, MDA-MB-231 cells were cotreated with synthesized compounds and MG-132 (5 μM) or 17-AAG (1 μM) at 37 °C for 18 h.

Serum stability in FBS = format: in vitro ADME, bovine; conditions: 40 μM in DPBS containing 25% FBS, 37 °C, 0–24 h, LC–MS, normalized to control without FBS
Description: YL2-HyT6 and ND1-YL2 solutions (200 μL, 40 μM in DPBS containing 25% FBS) were incubated at 37 °C for different time periods (0–24 h). For the precipitation of serum proteins, each sample was treated with 100 μL of 15% TFA and incubated at 4 °C overnight. Final samples were then centrifuged at 15,000 rpm for 10 min and filtrated for analysis using LC–MS with a C18 column. The ratio of the remaining compound (%) was calculated by integrating the chromatographic peak of a compound and normalized in comparison with a control sample (incubated without FBS).

HEK293T cells = assay: Cell viability assay (Cyto X); format: cell-based, human; conditions: 48 h, Opti-MEM
Description: (§1) MDA-MB-231 (1 × 10^4 cells/well) and HEK293T (1 × 10^4 cells/well) cells were seeded into a 96-well plate (Corning, 3595) and incubated at 37 °C with 5% CO2 for 24 h. These cells were then washed twice with DPBS and treated with 1% DMSO or various concentrations of YL2-HyT6 for 48 h in Opti-MEM medium. The remaining cells were then used to measure cell viability using a Cyto X cell viability assay kit (LPS solution, Daejeon, Korea, CYT3000) following the manufacturer’s instruction.

MDA-MB-231 cells = assay: Cell viability assay (Cyto X); format: cell-based, human; conditions: 48 h, Opti-MEM
Description: as §1

T1 sequence (Q15788 whole entry): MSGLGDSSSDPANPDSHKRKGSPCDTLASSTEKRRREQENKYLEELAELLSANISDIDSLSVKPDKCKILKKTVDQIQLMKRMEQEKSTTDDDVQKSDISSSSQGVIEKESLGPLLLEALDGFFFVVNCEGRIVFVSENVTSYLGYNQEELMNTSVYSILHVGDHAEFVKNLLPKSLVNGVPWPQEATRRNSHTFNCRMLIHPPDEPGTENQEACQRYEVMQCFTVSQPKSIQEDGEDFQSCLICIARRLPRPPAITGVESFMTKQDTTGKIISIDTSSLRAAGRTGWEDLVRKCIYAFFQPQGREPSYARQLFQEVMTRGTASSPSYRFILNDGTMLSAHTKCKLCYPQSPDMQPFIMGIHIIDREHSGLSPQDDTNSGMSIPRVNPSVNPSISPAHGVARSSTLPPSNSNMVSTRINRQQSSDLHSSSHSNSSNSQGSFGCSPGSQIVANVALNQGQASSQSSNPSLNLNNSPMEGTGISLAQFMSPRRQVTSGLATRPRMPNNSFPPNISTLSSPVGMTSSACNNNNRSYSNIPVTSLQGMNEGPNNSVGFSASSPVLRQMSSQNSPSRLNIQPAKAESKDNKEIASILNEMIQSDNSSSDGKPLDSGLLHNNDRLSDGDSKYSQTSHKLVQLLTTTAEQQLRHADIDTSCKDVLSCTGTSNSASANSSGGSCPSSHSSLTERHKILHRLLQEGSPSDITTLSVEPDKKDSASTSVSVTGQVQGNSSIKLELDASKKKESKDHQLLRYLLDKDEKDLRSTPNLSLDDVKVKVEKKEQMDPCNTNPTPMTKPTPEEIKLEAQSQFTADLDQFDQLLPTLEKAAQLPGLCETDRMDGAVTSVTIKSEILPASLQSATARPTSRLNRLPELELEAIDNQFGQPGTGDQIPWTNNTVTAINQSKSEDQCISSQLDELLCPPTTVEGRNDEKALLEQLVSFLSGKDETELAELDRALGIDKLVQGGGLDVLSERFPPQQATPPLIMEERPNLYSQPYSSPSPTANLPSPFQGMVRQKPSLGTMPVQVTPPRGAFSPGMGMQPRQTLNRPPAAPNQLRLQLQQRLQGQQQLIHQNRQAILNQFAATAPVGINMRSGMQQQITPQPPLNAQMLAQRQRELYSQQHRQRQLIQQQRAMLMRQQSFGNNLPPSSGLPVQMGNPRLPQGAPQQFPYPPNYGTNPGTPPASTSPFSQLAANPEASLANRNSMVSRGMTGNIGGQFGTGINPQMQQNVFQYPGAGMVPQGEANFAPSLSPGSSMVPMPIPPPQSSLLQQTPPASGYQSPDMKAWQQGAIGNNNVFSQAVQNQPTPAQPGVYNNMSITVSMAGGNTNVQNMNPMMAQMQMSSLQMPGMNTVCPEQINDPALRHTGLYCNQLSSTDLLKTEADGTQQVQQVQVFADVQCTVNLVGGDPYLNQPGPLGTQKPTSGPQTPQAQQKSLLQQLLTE

For `CC(C)C[C@H](NC(=O)CCOCCOCCOCCNC(=O)CNC12CC3CC(CC(C3)C1)C2)C(=O)N[C@@H](CC(C)C)C(=O)N1CCC[C@H]1C(=O)N1CCC[C@H]1C(=O)N[C@H](C(=O)N[C@@H](CCC(=O)O)C(=O)N[C@@H](CCC(N)=O)C(=O)N[C@@H](CC(=O)O)C(=O)N[C@@H](CC(C)C)C(=O)N[C@@]1(C)CCC/C=C\CCC[C@@](C)(C(=O)N[C@@H](Cc2ccc(O)cc2)C(N)=O)NC(=O)[C@H](CC2CCCCC2)NC(=O)[C@H](CC(C)C)NC(=O)[C@H](CCCCN)NC1=O)[C@@H](C)O` [YL2-HyT6] (H-[N(1-adamantyl)Gly][PEG3]LLPPTEQDL[S5]KL[Cha][S5]Y-NH2; staple (Z) 12-16; C-terminus assumed), which “SRC-1 (%)” value ([1]; MDA-MB-231 cells, 10 μM compound, 18 h) is on record?
The value was 30%.

And the “SRC-1 (%)” value ([1]; MDA-MB-231 cells, 20 μM compound, 18 h)?
The value was 20%.

What about the “Time to recovery of SRC-1 after washing out compound” value ([1]; MDA-MB-231 cells, 20 μM for 18 h, then washed away) of the same compound?
The value was no more than 12 h.

What about the “Time-dependent SRC-1 degradation” value ([1]; MDA-MB-231 cells, 20 μM, various time periods up to 24 h) of the same compound?
The value was “evidently degraded after 6 h”.

And the “SRC-1 (%)” value ([1]; MDA-MB-231 cells, 50 μM compound, 18 h)?
The value was 13%.

And the “SRC-1 degradation activity compared within YL2-HyT1–6” value ([1]; MDA-MB-231 cells, 12, 18 and 24 h)?
Its value is “most effective SRC-1 degradation activity at all three time points”.

And the DC50 ([1]; MDA-MB-231 cells, 18 h, immunoblot quantitation (Figure S4), three independent experiments, read-out: DC50 (reduction of cellular SRC-1 levels))?
Its DC50 is roughly 5 µM.

What about the “SRC-1 levels on cotreatment with Hsp90 inhibitor 17-AAG” value ([1]; MDA-MB-231 cells, YL2-HyT6 2.5 μM with 17-AAG (1 μM), 18 h) of the same compound?
Its value is “SRC-1 degradation even at a concentration that did not affect SRC-1 levels previously”.

And the “SRC-1 levels on cotreatment with proteasome inhibitor MG-132” value ([1]; MDA-MB-231 cells, cotreated with MG-132 (5 μM), 18 h)?
Its value is “SRC-1 levels were not changed in the presence of MG-132”.

What about the “Serum stability (remaining compound)” value (Serum stability in FBS) of the same compound?
The value was “improved stability relative to the peptide-based PROTAC (ND1-YL2)”.

What about the Cell viability (HEK293T cells) of the same compound?
The Cell viability was “little effect on cell viability”.

What about the Cell viability (MDA-MB-231 cells) of the same compound?
Its Cell viability is “little effect on cell viability”.
